Experiment [1] deals with GALR1. Briefly: Zn2+ inhibition assay, NanoBiT. It is filed as cell-based, human.
The test system of experiment [2] is GALR2. Briefly: Zn2+ inhibition assay, NanoBiT. Type of experiment: cell-based, human. Conditions: HEK-293T cells, pH 7.3.
For experiment [3], the system named is GALRs. Particulars: cited from earlier work.
Experiment [4] deals with ionotropic glutamate AMPA receptors. Conditions: cited from earlier work.
Another experiment deals with NMAR receptors. Particulars: cited from earlier work.
Experiment [5] addresses GALR1 Q92^2.61 to alanine (human) (UniProt P47211).
In the next experiment the target is GALR1 V274G (human) (UniProt P47211).
The target in the next experiment is GALR2 F271^7.32A (human) (UniProt O43603).
The target in experiment [6] is GALR2 Q82^2.61 to alanine (human) (UniProt O43603).
The target of the next experiment is GALR2 R184^5.35A (human) (UniProt O43603).
Experiment [7] concerns the target GALR1 F275 mutant (human) (UniProt P47211).
The target in experiment [8] is GALR2 F264 mutant (human) (UniProt O43603).
The subject of experiment [9] is GALRs. Particulars: cited from earlier work. This is another data set of the same source.
Another experiment deals with GALR1 or mutants. Kind of experiment: cAMP inhibition assay. It is filed as cell-based, human. Particulars: CHO cells.
The subject of a further experiment is GALR2 or mutants. Briefly: IP1 accumulation assay. It is filed as cell-based, human. Particulars: HEK-293T cells, 1 h.
For a further experiment, the system named is GALR1 and its mutants. Kind of experiment: NanoBiT mini-Go recruitment assay. Type of experiment: cell-based, human.
In a further experiment the test system is GALR2 and its mutants. Kind of experiment: NanoBiT mini-Gq recruitment assay. It is filed as cell-based, human. Particulars: mutations of conserved TM3/TM5/TM6 residues in GALR2.
In another experiment the test system is GALR2 with ICL3 of GALR1. Briefly: GALR2-Go coupling with ICL3 substitution. Conditions: ICL3 (214 to 225) of GALR2 replaced by GALR1 residues. Type of experiment: cell-based, human.
The test system of experiment [10] is GALR2. Kind of experiment: NanoBiT assay, GALR2-Gαs coupling. It is filed as cell-based, human. Conditions: E(-3) in Gαs substituted with the equivalent Gαq residue.
Experiment [11] deals with GALR2. Kind of experiment: GALR2-Gq coupling of ICL2 and TM5 mutants. Type of experiment: cell-based, human. Particulars: L^5.65A mutation in GALR2.
The test system of experiment [12] is GALR1. Particulars: cited from earlier work.
The test system of experiment [13] is GALR2. Particulars: cited from earlier work.
For experiment [14], the system named is GALR3. Particulars: mutation of equivalent residue F263 in GALR3; cited from earlier work.
The test system of experiment [15] is GALR2. Conditions: specific for GALR2 and GALR3; cited from earlier work.
In experiment [16] the test system is GALR3. Conditions: specific for GALR2 and GALR3; cited from earlier work.
The mark [17] stands for this setting: S235^ICL3 and K237^ICL3 mutations in GALR1.

Turning to `[Zn+2]` [Zn^2+, ZnCl2], the “character of Zn2+ inhibition” value in the experiment on GALR1 [1] (1 μM galanin, wild-type GALR1, HEK-293T cells, pH 7.3) was “saturable or has a “ceiling” level”. Besides, the “effect of mutation on zinc inhibition” value is “little influence” in the experiment with GALR1 [1] (GALR1 H112^3.29A, 1 μM galanin, HEK-293T cells); “little influence” with GALR1 [1] (GALR1 H263^6.51F, 1 μM galanin, HEK-293T cells); “little influence” with GALR1 [1] (GALR1 H264^6.52F, 1 μM galanin, HEK-293T cells). Also, the “effect on galanin concentration-response curve” value in the experiment with GALR1 [1] (H267^6.55A mutant of GALR1, HEK-293T cells) was “little effect”. In the experiment with GALR1 [1] (conclusion from NanoBiT assay, listed as zinc ion), the “allosteric modulation of GALR1” value is recorded as “negative allosteric regulator”. Besides, in the experiment on GALR2 [2] (below millimolar Zn2+), the “effect on galanin-induced GALR2 activation” value is on record as “little effect”. The “Zn2+ concentration at which galanin activation of GALR2 is diminished” value in the experiment on GALR2 [2] (galanin-induced, above the physiological concentration) was “millimolar range”. Also, the “inhibition of galanin binding to the receptors” value with GALRs [3] was “can inhibit galanin binding”. For the same molecule, in experiment [4], the “effect on AMPA receptors” value was “inhibits”. In addition, in the experiment on NMAR receptors, the “effect on NMDA receptors” value is “inhibits”.
As for “N-terminal region of galanin ([1]–[16]): N-terminal region of galanin”, in the experiment on GALRs [3], the “binding affinity for the receptors relative to full-length galanin” value was “comparable to the full-length galanin”.
With galanin peptide 1 through 30, the fold reduction of galanin potency, cAMP inhibition assay in [5] and in experiment [7] was 100 fold in each case. The fold reduction of agonist potency, cAMP inhibition assay with GALR1 V274G (human) worked out at 370 fold. Also, the fold reduction of galanin potency, IP1 accumulation assay came to 100 fold with GALR2 F271^7.32A (human), 100 fold in experiment [6], 10 fold with GALR2 R184^5.35A (human) and 100 fold in experiment [8].
Consider “galanin-like peptide (GALP): endogenous galanin-like peptide (APAHRGRGGWTLNSAGYLLGPVLHLPQMGDQDGKRETALEILDLWKAIDGLPYSHPPQPS; Galanin-like peptide; UniProt Q9UBC7 25-84, looked up)”, for which the “activation of GALRs” value in the experiment on GALRs [9] was “activate GALRs”.
For the molecule “galanin: 29- or 30-amino acid peptide, endogenous ligand; galanin peptide 1 through 30 (MedChemExpress)”, in the experiment on GALR1 or mutants (V274G mutant of GALR1 (ECL3), 1 μM forskolin), the “reduction of agonist (galanin) potency vs wild type” value is listed as “about 370 fold”. The “effect of mutation on galanin potency” value with GALR1 or mutants (W188^ECL2 mutant of GALR1, compared with H176^ECL2 mutant of GALR2) is on record as “distinct effect”; in the experiment with GALR2 or mutants (Q263A mutant of GALR2 (ECL3)), “little effect”; in the experiment on GALR1 and its mutants (setting [17]) it was “modest effect”; in the experiment with GALR2 [11], “significantly decreased”. The “reduction of galanin potency vs wild type” value in the experiment with GALR1 or mutants (mutation of F275 (ECL3) in GALR1, 1 μM forskolin) was about 100 fold; in the experiment on GALR2 or mutants (Q82^2.61 to alanine mutant of GALR2), about 100 fold; with GALR2 or mutants (R184^5.35A mutant of GALR2), “about 10 fold”; with GALR2 or mutants (mutation of F264 (ECL3) in GALR2) it was about 100 fold. The “effect of mutation on galanin maximum response” value in the experiment with GALR1 and its mutants (setting [17]) is “dramatically reduced”. In addition, in the experiment with GALR1 and its mutants (mutations of conserved TM3/TM5/TM6 residues in GALR1), the “recruitment of Gi” value was “impair”. Besides, in the experiment with GALR2 and its mutants, the “recruitment of Gq” value was “impair”. Moreover, the “ability of GALR2 to bind Go” value in the experiment with GALR2 with ICL3 of GALR1 is “acquired the ability to bind Go”. Also, the “coupling efficiency between GALR2 and Gs” value with GALR2 [10] is reported as “significantly increased”. Moreover, the “reduction of galanin binding affinity” value with GALR1 [12] (H267^6.55 mutation of GALR1) was “more than 100 fold”. Further, the “galanin binding affinity of mutants” value is on record as “significantly reduce” in the experiment with GALR1 [12] (mutations of F115 and H264 of GALR1); “significantly reduce” in the experiment with GALR2 [13] (mutations of F106, H252, H253, I256, W260, and F261 of GALR2). In addition, the “galanin binding to mutant” value in the experiment on GALR2 [13] (mutation of F264 in GALR2) and in the experiment with GALR3 [14] was “completely abolishes” in each case. In addition, the “binding affinity for GALRs” value with GALRs [3] is listed as “subnanomolar range”.

B1: spexin: endogenous peptide spexin has A7M and G8L mutations in galanin (peptide, UniProt Q9BT56 27-116, looked up)
Spexin: APQRLLERRNWTPQAMLYLKGAQGRRFISDQSRRKDLSDRPLPERRSPNPQLLTIPEAATILLASLQKSPEDEEKNFDQTRFLEDSLLNW
modifications: Spexin
As to B1, the “activation of GALRs” value in the experiment with GALRs [9] was “activate GALRs”. The “activation of GALR2” value in the experiment on GALR2 [15] is “specifically activates GALR2 and GALR3”. For the same molecule, in the experiment with GALR3 [16], the “activation of GALR3” value is “specifically activates GALR2 and GALR3”.
